Data from US20170321214A1, “DEAD GUIDES FOR CRISPR TRANSCRIPTION FACTORS” (The Broad Institute Inc., priority 2014, published 2017).

Assays:
HBG1/2 promoter = experiment: Off-target transcriptional activation using RNAseq; assay type: cell-based
Protocol: FIG. 7A-7C: The plots of FIG. 7 illustrate embodiments in which dRNAs can specifically upregulate gene expression, and have a specificity profile similar to 20 bp sgRNA activators. Sequences targeted to the HBG1/2 promoter were tested for off-target transcriptional activation using RNAseq. 20 nt sgRNAs with MS2 binding loops were co-transfected with dCas9 and the MPH activation complex. […] (In all cases, N=3 replicates/group).

Factor VII = conditions: LNP siRNA systems containing these lipids; cited from earlier work
dystrophin = conditions: across 48 weeks, average; cited from earlier work
[1] = 20 nt sgRNA with MS2 loops + dCas9 + MPH

SEQ ID NO 120: 20 nt sgRNA with MS2 binding loops targeted to the HBG1/2 promoter, first guide (guide GGCTAGGGATGAAGAATAAA; listed as DNA, chemistry not given here)
significantly upregulated genes apart from HBG1/2 (HBG1/2 promoter; [1]): Zero

SEQ ID NO 125: dRNA targeted to the HBG1/2 promoter, first guide (guide GGGATGAAGAATAAA; listed as DNA, chemistry not given here)
significantly upregulated genes apart from HBG1/2 (HBG1/2 promoter; dRNA + active Cas9 + MPH): Zero

CCCCC/C=C\C/C=C\CCCCCCCCOCC(CN(C)C)OCCCCCCCC/C=C\C/C=C\CCCCC (stereo not drawn) [DLinDMA, 1,2-dilinoleyloxy-3-N,N-dirnethylamiopropane]
gene silencing potency series (Factor VII): DLinKC2-DMA>DLinKDMA>DLinDMA>>DLinDAP

1,2-dilinoleyloxy-keto-N,N-dimethyl-3-aminopropane [DLinKDMA]
gene silencing potency series (Factor VII): DLinKC2-DMA>DLinKDMA>DLinDMA>>DLinDAP

SEQ ID NO 97: dRNA targeted to the HBG1/2 promoter, second guide (guide GAGGCCAGGGGCCGG; listed as DNA, chemistry not given here)
significantly upregulated genes apart from HBG1/2 (HBG1/2 promoter; dRNA + active Cas9 + MPH): 31

SEQ ID NO 90: 20 nt sgRNA with MS2 binding loops targeted to the HBG1/2 promoter, second guide (guide CCAGTGAGGCCAGGGGCCGG; listed as DNA, chemistry not given here)
significantly upregulated genes apart from HBG1/2 (HBG1/2 promoter; [1]): 55

CCCCC/C=C\C/C=C\CCCCCCCCC1(CCCCCCCC/C=C\C/C=C\CCCCC)OCC(CCN(C)C)O1 (stereo not drawn) [DLinKC2-DMA, 1,2-dilinoleyl-4-(2-dimethylaminoethyl)-[1,3]-dioxolane]
gene silencing potency series (Factor VII): DLinKC2-DMA>DLinKDMA>DLinDMA>>DLinDAP

eteplirsen
dystrophin positive fibers compared to baseline (dystrophin): 47%

CCCCC/C=C\C/C=C\CCCCCCCC(=O)OCC(CN(C)C)OC(=O)CCCCCCC/C=C\C/C=C\CCCCC (stereo not drawn) [DLinDAP, 1,2-dilineoyl-3-dimethylammonium-propane]
gene silencing potency series (Factor VII): DLinKC2-DMA>DLinKDMA>DLinDMA>>DLinDAP
